Reference: article PMC4350845, “Polyphosphatase PPN1 of Saccharomyces cerevisiae: Switching of Exopolyphosphatase and Endopolyphosphatase Activities” (PLoS ONE, 2015)

Target: T1, polyphosphatase PPN1 (Saccharomyces cerevisiae, UniProt Q04119)
T1 construct: recombinant, overexpressed in S. cerevisiae CRN/pMB1_PPN1 Sc and purified; proteolytically matured form of ~33 kDa on SDS-PAGE (precursor predicted 78 kDa); no tag mentioned
T1 sequence (Q04119 84-384): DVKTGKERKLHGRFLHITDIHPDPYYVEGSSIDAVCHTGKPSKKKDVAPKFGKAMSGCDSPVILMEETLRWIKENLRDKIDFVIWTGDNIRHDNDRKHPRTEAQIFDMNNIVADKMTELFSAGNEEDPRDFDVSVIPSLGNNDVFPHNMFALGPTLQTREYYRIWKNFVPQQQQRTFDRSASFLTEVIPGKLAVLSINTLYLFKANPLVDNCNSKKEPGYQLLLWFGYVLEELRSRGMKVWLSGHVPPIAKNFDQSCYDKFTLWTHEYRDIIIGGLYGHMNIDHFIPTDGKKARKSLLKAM
Test: inhibition of exopolyphosphatase activity (Pi release from PolyP208)
Format: biochemical
Details: inhibitor; PolyP208 2.5 mM as Pi, 0.1 mM CoSO4, 200 mM NH4Cl, pH 7.2, 30 C

| SMILES | % of control activity at 2.0 mM |
| --- | --- |
| O=P(O)(O)OP(=O)(O)OP(=O)(O)O [PolyP3] | PPi and PolyP3 inhibited Pi release |
| O=P(O)(O)OP(=O)(O)O [PPi] | PPi and PolyP3 inhibited Pi release |
